This is an account of results in PMC11237035, “Glutathione determines chronic myeloid leukemia vulnerability to an inhibitor of CMPK and TMPK” (Communications Biology, 2024).

Each structure is given as a SMILES string. Several values for one entry are separate records, joined by “and”; a condition that tells them apart may be missing. Equal entries are not always repeated.

In data set [1] the test system is T315I-Bcr-Abl-32D cells. Description: dTTP/dCTP pools by RCA-qPCR in T315I-Bcr-Abl-32D cells. The conditions noted are these: T315I; replicates. The format is cell-based, mouse. The protocol:
The methanol extracts were centrifuged
For chloroform extraction, same volume of
attomol of the annealed template-primer.
The RCA products were determined by
The thiophenol compound 3 was
(98.5%) after silica gel chromatography.
A general note: Quantitative PCR measures a nucleic acid by following its amplification.

Data set [2] has as its system untransformed 32D cells. Description: CCK-8 cell viability assay, untransformed 32D cells. The format is cell-based, mouse. The conditions noted are these: 32D; UK-5099 alone (JMF4073 0); replicates. The method, then:
After 72 h, viability assays were performed.
3 independent experiments. Asterisks denote ***p<0.001 from non-paired two-tailed
On the technique in general: Tetrazolium assays rely on reduction of a dye to a coloured formazan, in cell work by metabolically active cells.

In data set [3] the test system is T315I-Bcr-Abl-32D cells. Description: CCK-8 cell viability assay, T315I-Bcr-Abl-32D cells. The format is cell-based, mouse. The conditions noted are these: T315I-Bcr-Abl; UK-5099 alone (JMF4073 0); replicates.
In data set [4] the test system is T315I-Bcr-Abl-32D cells. The experiment in a line: GSH/GSSG-Glo measurement, T315I-Bcr-Abl-32D cells. Type of data set: cell-based, mouse. The conditions noted are these: T315I-Bcr-Abl cells, UK-5099 25 μM, 16 h. The text has this:
(§1) The GSH/GSSG-Glo™ Assay Kit (Promega, V6611) was used for luminescent-based measurement of cellular GSH and GSSG by Tecan Spark 10 microplate reader.

Data set [5] concerns untransformed 32D cells. Description: GSH/GSSG-Glo measurement, untransformed 32D cells. The conditions noted are these: UK-5099 25 μM, 16 h. Type of data set: cell-based, mouse.
Description: as §1

Data set [6] deals with K562 cells. Description: GSH/GSSG-Glo measurement, K562 cells. The format is cell-based, human. The method, then:
(§2) After 3 days, cells were analyzed by viability assays.
as §1

Data set [7] concerns TCCS cells. The experiment in a line: GSH/GSSG-Glo measurement, TCCS cells. Type of data set: cell-based, human. The conditions noted are these: for GSH level: TCCS cells, 16 h. The protocol:
as §2, §1

Data set [8] concerns KOPM28 cells. Description: GSH/GSSG-Glo measurement, KOPM28 cells. The format is cell-based, human. The conditions noted are these: for GSH level: KOPM28 cells, 16 h. The protocol:
as §2, §1

Data set [9] has as its system T315I-Bcr-Abl-32D cells. Description: DNA fiber assay (replication speed), T315I-Bcr-Abl-32D cells. The format is cell-based, mouse. The conditions noted are these: T315I-Bcr-Abl cells, UK-5099 25 μM, 16 h. The protocol: (§3) The workflow of DNA fiber labeling (Right). The representative labeled fibers are shown below. Replication speed in kb/min was calculated by the measured length of IdU (green) linking to CldU (red) in μm with a conversion factor of 0.34 μm/kb divided by the duration of the labeling pulse (Scale bar = 10 μm). The gray triangle indicates the boundary between red fluorescence and green fluorescence. c The measurement of intracellular ROS by the fluorescence intensity of CellROX Green staining using flow cytometric analysis. Data are presented as mean intensity relative to untransformed 32D cells. d, e The measurement of GSSG and GSH. […] Schematic illustration of the metabolic path U-^13C glutamine incorporation into the GSH (left). Gray and white circles indicate ^13C-label, and unlabeled ^12C, respectively. The traced isotopologue abundance of GSH is shown (right).
(§4) The DNA fiber assay was performed as described previously. Briefly, cells were sequentially treated with the medium containing 25 μM of CldU (Sigma-Aldrich, C6891) and then 250 μM of IdU (Sigma-Aldrich, I7125) for 20 min. After washing, cells were suspended in PBS (1000 cells/ μL). 2 μL of cell suspension was spotted on slides. […] The lengths of red- and green-labeled fibers were determined by FluoView3.0 software (Olympus).

Data set [10] concerns untransformed 32D cells. Description: DNA fiber assay (replication speed), untransformed 32D cells. The conditions noted are these: UK-5099 25 μM, 16 h. Type of data set: cell-based, mouse. The method, then:
as §3, §4

Data set [11] deals with T315I-Bcr-Abl-32D cells in C3H/HeNCrNarl mice. The conditions noted are these: T315I-Bcr-Abl-32D mice, UK-5099 10 mg/kg i.p. daily for 14 days alone, vs vehicle.
Description: Asterisks denote *p < 0.05, **p < 0.01, ***p < 0.001, or ****p < 0.0001 from unpaired two-tailed Student’s t-test or Log-rank (Mantel–Cox) test.
T315I-Bcr-Abl-transformed and untransformed 32D cells were treated with UK-5099 (25 μM) for 16 h. […] Data are represented as means ± S.D., n > 3 biological replicates.
The animal studies were approved by the biosafety committee at National Taiwan University and conformed to the national guidelines and regulations (IACUC # 20201063). Female C3H/HeNCrNarl mice were used at 6–8 weeks of age (National Laboratory Animal Center, Taiwan).
Mouse CML induction and in vivo therapy
The animal studies were approved by the biosafety committee at National Taiwan
University and conformed to the national guidelines and regulations (IACUC #
20201063). Female C3H/HeNCrNarl mice were used at 6-8 weeks of age (National
Laboratory Animal Center, Taiwan).
suspended in 200 μL of HBSS were injected into each mouse through the tail vein.
suspended in 200 μL of HBSS were tail-vein-injected.
For monitoring CML progress, mice blood was
collected in anticoagulation tubes by submandibular blood collection, followed by
lysing red blood cells with RBC lysis buffer (Invitrogen). After washing, the remaining
cells were suspended in 500 μL of HBSS and subjected to flow cytometry analysis
(FACScalibur, BD Bioscience) with CellQuest software.
In data set [12] the test system is TCCS cells. Description: DNA fiber assay (replication speed), TCCS cells. The format is cell-based, human. The conditions noted are these: erastin 0.5 μM, 16 h. The method, then:
as §2
(§5) The DNA fiber assay was performed as described previously. Briefly, cells were sequentially treated with the medium containing 25 μM of CldU (Sigma-Aldrich, C6891) and then 250 μM of IdU (Sigma-Aldrich, I7125) for 20 min. After washing, cells were suspended in PBS (1000 cells/ μL). 2 μL of cell suspension was spotted on slides. After 5 min, 10 μL spread solution (200 mM Tris-HCl, pH 7.5, 50 mM EDTA, and 0.5% SDS) was spotted on the cell droplet and spread on slides. The slides were then fixed with methanol/acetic acid (3:1), followed by denaturation with 2.5 M HCl. After blocking with 5% BSA in TBST, slides were stained with rat anti-BrdU antibody (which detects CldU but not IdU, OBT0030, 1:2000, AbDSerotec) and mouse anti-BrdU antibody (which detects IdU but not CldU, 7580, 1:1000, BD Biosciences) at 4 °C for overnight. The next day, slides were washed with TBST, followed by staining with the secondary antibodies of goat anti-rat IgG conjugated with TRITC (Jackson Lab) and goat anti-mouse IgG conjugated with FITC. Images of DNA fibers were acquired using a microscope (Olympus). The lengths of red- and green-labeled fibers were determined by FluoView3.0 software (Olympus).

For data set [13], the system named is KOPM28 cells. Description: DNA fiber assay (replication speed), KOPM28 cells. Type of data set: cell-based, human. The conditions noted are these: erastin 0.5 μM, 16 h. The method, then: as §2, §5

Take `N#C/C(=C\c1cn(-c2ccccc2)c2ccccc12)C(=O)O` [UK-5099]: the “Figure 6d, dCTP relative to NT (=100)” value in data set [1] was 73.8406 and 210.17 and 73.3898. In addition, the “Figure 6d, dTTP relative to NT (=100)” value in [1] was 74.5764 and 216.09 and 77.7298. Also, the “Figure 6c, viability relative to NT (=100)” value in [2] is 104.358 and 105.293 and 83.4613; in data set [3], 99.9363 and 88.5988 and 102.123. Moreover, the GSH level entry in data set [4] is “reduce GSH levels”; in data set [7] (UK-5099 50 μM) it was “unchanged”; in [8] (UK-5099 50 μM) it was “unchanged”. For the same compound, in data set [5], the “effect on GSH reduction, compared with T315I-Bcr-Abl cells” value was “less”. Further, the “GSH% relative to K562 (Figure 7e)” value in data set [6] (K562, UK-5099 treated, K562 vehicle = 100, per replicate) was 52.9657% and 35.7607% and 66.83%; in data set [7] (TCCS, UK-5099 treated, K562 vehicle = 100, per replicate) it was 96.7924% and 63.772% and 96.1621%; in data set [8] (KOPM28, UK-5099 treated, K562 vehicle = 100, per replicate), 180.441% and 154.066% and 117.536%. In addition, the “cellular level of GSH” value in data set [6] (K562 cells, UK-5099 50 μM, 16 h) is reported as “bring down”. Moreover, the replication fork progression entry in data set [9] is “slow replication fork progression”. For the same compound, in [10], the “effect on replication stress, compared with T315I-Bcr-Abl cells” value is listed as “less”. Besides, in data set [11], the “survival of leukemia mice” value is on record as “not affected”.
Consider `CCOc1ccccc1-n1c(C(C)N2CCN(C(=O)COc3ccc(Cl)cc3)CC2)nc2ccccc2c1=O` (stereo not drawn) [erastin], for which the GSH level result in data set [7] (erastin 0.5 μM) and in data set [8] (erastin 0.5 μM) was “drastically reduced” in each case. For the same compound, the “GSH% relative to K562 in 7e (Figure 7f)” value is 12.1585% and 8.793% and 13.8% in data set [7] (TCCS, Erastin treated, per replicate); 6.981% and 5.472% and 15% in data set [8] (KOPM28, Erastin treated, per replicate). In addition, the “replication stress (DNA fiber)” value in data set [12] and in data set [13] was “induced replication stress” each time.
